Counter-ions that a name gives are not always drawn.
Target: farnesyl transferase (Homo sapiens, UniProt P49354+P49356)
Assay: Farnesyl transferase inhibition, [3H]-farnesylation of biotinylated K-ras C-terminal peptide (SPA assay)
Type: biochemical
Settings: In vitro inhibitory activity (K-Ras) IC50, K-Ras substrate; 60 min at 37° C.; mean of two IC50 values

Row | SMILES | IC50 [nM]
1 | COc1ccccc1CC(=O)N1C[C@H]2[C@@]3(c4ccc(C)cc4)CC[C@H](c4ccccc43)[C@@]2(C(=O)O)C1 (single isomer, unassigned) [Example 30, dextrorotatory enantiomer of (3aRS,4SR,9SR,9aRS)-4,9-ethano-2-[2-(2-methoxyphenyl)acetyl]-9-(4-methylphenyl)-2,3,3a,4,9,9a-hexahydro-1H-benzo[f]isoindole-3a-carboxylic Acid] | 74

Same assay, conditions: K-Ras substrate; 60 min at 37° C.; mean of two IC50 values; read-out: In vitro inhibitory activity (K-Ras) IC50

Row | SMILES | IC50 [nM]
2 | C=C(C(=O)N1C[C@@H]2[C@]3(c4ccc5c(c4)OCCO5)CC[C@@H](c4ccccc43)[C@]2(C(=O)NCc2cccs2)C1)c1ccccc1OC (relative stereo) [Example 36, (3aRS,4SR,9SR,9aRS)-9-(2,3-dihydro-1,4-benzodioxin-6-yl)-4,9-ethano-2-[2-(2-methoxyphenyl)propenoyl]-2,3,3a,4,9,9a-hexahydro-1H-benzo[f]isoindole-3a-N-(2-thienylmethyl)carboxamide] | 120
3 | C=C(C(=O)N1C[C@@H]2[C@]3(c4ccc(C(F)(F)F)cc4)CC[C@@H](c4ccccc43)[C@]2(C(=O)NCc2cccnc2)C1)c1ccccc1OC (relative stereo) [Example 42, (3aRS,4SR,9SR,9aRS)-4,9-ethano-2-[2-(2-methoxyphenyl)propenoyl]-9-[4-(trifluoromethyl)phenyl]-2,3,3a,4,9,9a-hexahydro-1H-benzo[f]isoindole-3a-N-(3-pyridylmethyl)carboxamide] | 83
4 | C=C(C(=O)N1C[C@@H]2[C@]3(c4ccc(C(F)(F)F)cc4)CC[C@@H](c4ccccc43)[C@]2(C(=O)NNC(=O)c2ccccc2)C1)c1ccccc1OC (relative stereo) [Example 43, (3aRS,4SR,9SR,9aRS)-4,9-ethano-2-[2-(2-methoxyphenyl)propenoyl]-9-[4-(trifluoromethyl)phenyl]-2,3,3a,4,9,9a-hexahydro-1H-benzo[f]isoindole-3a-N'-benzoylcarbohydrazide] | 590
5 | C=C(C(=O)N1C[C@@H]2[C@]3(c4ccc(C(F)(F)F)cc4)CC[C@@H](c4ccccc43)[C@]2(C(=O)NNc2ccccc2)C1)c1ccccc1OC (relative stereo) [Example 44, (3aRS,4SR,9SR,9aRS)-4,9-ethano-2-[2-(2-methoxyphenyl)propenoyl]-9-[4-(trifluoromethyl)phenyl]-2,3,3a,4,9,9a-hexahydro-1H-benzo[f]isoindole-3a-N'-phenylcarbohydrazide] | 369
6 | C=C(C(=O)N1C[C@@H]2[C@]3(c4ccc5ccccc5c4)CC[C@@H](c4ccccc43)[C@]2(C(=O)O)C1)c1ccccc1OC (relative stereo) [Example 46, sodium salt of (3aRS,4SR,9SR,9aRS)-4,9-ethano-2-[2-(2-methoxyphenyl)propenoyl]-9-(2-naphthyl)-2,3,3a,4,9,9a-hexahydro-1H-benzo[f]isoindole-3a-carboxylic Acid] | 132
7 | C=C(C(=O)N1C[C@@H]2[C@]3(c4ccc5c(c4)CCO5)CC[C@@H](c4ccccc43)[C@]2(C(=O)NCc2cccnc2)C1)c1ccccc1OC (relative stereo) [Example 63, (3aRS,4SR,9SR,9aRS)-9-(2,3-dihydrobenzofuran-5-yl)-4,9-ethano-2-[2-(2-methoxyphenyl)propenoyl]-2,3,3a,4,9,9a-hexahydro-1H-benzo[f]isoindole-3a-N-(3-pyridylmethyl)carboxamide] | < 20
8 | C=C(C(=O)N1C[C@H]2[C@@]3(c4ccc(OC)cc4)CC[C@H](c4ccccc43)[C@@]2(C(=O)NCc2cccnc2)C1)c1ccccc1OC (relative stereo) [Example 76, (3aRS,4SR,9SR,9aRS)-4,9-ethano-9-(4-methoxyphenyl)-2-[2-(2-methoxyphenyl)propenoyl]-2,3,3a,4,9,9a-hexahydro-1H-benzo[f]isoindole-3a-N-(3-pyridylmethyl)carboxamide] | 244
9 | C=C(C(=O)N1C[C@H]2[C@@]3(c4ccc(OC)cc4)CC[C@H](c4ccccc43)[C@@]2(C(=O)NNc2ccccc2)C1)c1ccccc1OC (relative stereo) [Example 77, (3aRS,4SR,9SR,9aRS)-4,9-ethano-9-(4-methoxyphenyl)-2-[2-(2-methoxyphenyl)propenoyl]-2,3,3a,4,9,9a-hexahydro-1H-benzo[f]isoindole-3a-N'-phenylcarbohydrazide] | 204
10 | C=C(C(=O)N1C[C@H]2[C@@]3(c4ccc(OC)cc4)CC[C@H](c4ccccc43)[C@@]2(C(=O)NNc2cccnc2)C1)c1ccccc1OC (relative stereo) [Example 79, (3aRS,4SR,9SR,9aRS)-4,9-ethano-9-(4-methoxyphenyl)-2-[2-(2-methoxyphenyl)propenoyl]-2,3,3a,4,9,9a-hexahydro-1H-benzo[f]isoindole-3a-N'-(3-pyridyl)carbohydrazide] | 45
11 | C=C(C(=O)N1C[C@H]2[C@@]3(c4ccc(OC)cc4)CC[C@H](c4ccccc43)[C@@]2(C(=O)NCc2ccsc2)C1)c1ccccc1OC (relative stereo) [Example 80, (3aRS,4SR,9SR,9aRS)-4,9-ethano-9-(4-methoxyphenyl)-2-[2-(2-methoxyphenyl)propenoyl]-2,3,3a,4,9,9a-hexahydro-1H-benzo[f]isoindole-3a-N-(3-thienylmethyl)carboxamide] | 67
12 | C=C(C(=O)N1C[C@H]2[C@@]3(c4cccc(F)c4)CC[C@H](c4ccccc43)[C@@]2(C(=O)NCc2cccnc2)C1)c1ccccc1OC (relative stereo) [Example 87, (3aRS,4SR,9SR,9aRS)-4,9-ethano-9-(3-fluorophenyl)-2-[2-(2-methoxyphenyl)propenoyl]-2,3,3a,4,9,9a-hexahydro-1H-benzo[f]isoindole-3a-N-(3-pyridylmethyl)carboxamide] | 64
13 | C=C(C(=O)N1C[C@H]2[C@@]3(c4cccc(Cl)c4)CC[C@H](c4ccccc43)[C@@]2(C(=O)NCc2cccnc2)C1)c1ccccc1OC (relative stereo) [Example 90, (3aRS,4SR,9SR,9aRS)-9-(3-chlorophenyl)-4,9-ethano-2-[2-(2-methoxyphenyl)propenoyl]-2,3,3a,4,9,9a-hexahydro-1H-benzo[f]isoindole-3a-N-(3-pyridylmethyl)carboxamide] | 68
14 | C=C(C(=O)N1C[C@H]2[C@@]3(c4cccc(N(C)C)c4)CC[C@H](c4ccccc43)[C@@]2(C(=O)OC)C1)c1ccccc1OC (relative stereo) [Example 91, methyl (3aRS,4SR,9SR,9aRS)-9-(3-N,N-dimethylaminophenyl)-4,9-ethano-2-[2-(2-methoxyphenyl)propenoyl]-2,3,3a,4,9,9a-hexahydro-1H-benzo[f]isoindole-3a-carboxylate] | 183
15 | C=C(C(=O)N1C[C@H]2[C@@]3(c4cccc(N(C)C)c4)CC[C@H](c4ccccc43)[C@@]2(C(=O)O)C1)c1ccccc1OC (relative stereo) [Example 92, (3aRS,4SR,9SR,9aRS)-9-(3-N,N-dimethylaminophenyl)-4,9-ethano-2-[2-(2-methoxyphenyl)propenoyl]-2,3,3a,4,9,9a-hexahydro-1H-benzo[f]isoindole-3a-carboxylic Acid] | 28
16 | C=C(C(=O)N1C[C@H]2[C@@]3(c4ccc(N(C)C)cc4)CC[C@H](c4ccccc43)[C@@]2(C(=O)OC)C1)c1ccccc1OC (relative stereo) [Example 94, methyl (3aRS,4SR,9SR,9aRS)-9-(4-N,N-dimethylaminophenyl)-4,9-ethano-2-[2-(2-methoxyphenyl)propenoyl]-2,3,3a,4,9,9a-hexahydro-1H-benzo[f]-isoindole-3a-carboxylate] | 557
17 | C=C(C(=O)N1C[C@H]2[C@@]3(c4ccc(C)cc4)CC[C@H](c4ccccc43)[C@@]2(C(=O)O)C1)c1ccccc1OC (single isomer, unassigned) [Example 4, laevorotatory enantiomer of (3aRS,4SR,9RS,9aRS)-4,9-ethano-2-[2-(2-methoxyphenyl)propenoyl]-9-(4-methylphenyl)-2,3,3a,4,9,9a-hexahydro-1H-benzo[f]isoindole-3a-carboxylic acid] | 1800
18 | C=C(C(=O)N1C[C@H]2[C@@]3(c4ccc(C)cc4)CC[C@H](c4ccccc43)[C@@]2(C(=O)NCc2cccnc2)C1)c1ccccc1OC (single isomer, unassigned) [Example 18, Dextrorotatory Enantiomer of (3aRS,4SR,9SR,9aRS)-4,9-ethano-2-[2-(2-methoxyphenyl)propenoyl]-9-(4-methylphenyl)-2,3,3a,4,9,9a-hexahydro-1H-benzo[f]isoindole-3a-N-(3-pyridylmethyl)carboxamide] | 50
19 | C=C(C(=O)N1C[C@H]2[C@@]3(c4ccc(C)cc4)CC[C@H](c4ccccc43)[C@@]2(C(=O)NCc2cccnc2)C1)c1ccccc1OC (single isomer, unassigned) [Example 19, Levorotatory Enantiomer of (3aRS,4SR,9SR,9aRS)-4,9-ethano-2-[2-(2-methoxyphenyl)propenoyl]-9-(4-methylphenyl)-2,3,3a,4,9,9a-hexahydro-1H-benzo[f]isoindole-3a-N-(3-pyridylmethyl)carboxamide] | 181
20 | C=C(C(=O)N1C[C@H]2[C@@]3(c4ccc5c(c4)OCCO5)CC[C@H](c4ccccc43)[C@@]2(C(=O)NCc2cccnc2)C1)c1ccccc1OC (single isomer, unassigned) [Example 34, dextrorotatory enantiomer of (3aRS,4SR,9SR,9aRS)-9-(2,3-dihydro-1,4-benzodioxin-6-yl)-4,9-ethano-2-[2-(2-methoxyphenyl)propenoyl]-2,3,3a,4,9,9a-hexahydro-1H-benzo[f]isoindole-3a-N-(3-pyridylmethyl)carboxamide] | < 20
21 | C=C(C(=O)N1C[C@@H]2[C@]3(c4ccc5c(c4)OCCO5)CC[C@@H](c4ccccc43)[C@]2(C(=O)NCc2cccnc2)C1)c1ccccc1OC (single isomer, unassigned) [Example 35, levorotatory enantiomer of (3aRS,4SR,9SR,9aRS)-9-(2,3-dihydro-1,4-benzodioxin-6-yl)-4,9-ethano-2-[2-(2-methoxyphenyl)propenoyl]-2,3,3a,4,9,9a-hexahydro-1H-benzo[f]isoindole-3a-N-(3-pyridylmethyl)carboxamide] | 84

Reference: US6218406A, “Farnesyl transferase inhibitors, their preparation, the pharmaceutical compositions which contain them and their use in the preparation of medicaments” (Aventis Pharma S.A., priority 1996, dated 2001)
